Here are results for 1 molecule from ChEMBL document CHEMBL3414533, “Thiophene containing trisubstituted methanes [TRSMs] as identified lead against Mycobacterium tuberculosis” (Eur J Med Chem, 2015).

In assay [1] the test system is Mycobacterium tuberculosis. As to the kind of experiment: Antimycobacterial activity against multidrug-resistant Mycobacterium tuberculosis by agar dilution method. The assay is classed as functional. (In general: In agar dilution, organisms are placed on agar that contains the substance at set levels.)
The subject of assay [2] is Mycobacterium tuberculosis. Briefly: Antimycobacterial activity against rifampicin-resistant Mycobacterium tuberculosis by agar dilution method. It is filed as functional.

A word on the MIC: it is the lowest concentration that inhibits growth of the organism. A low value points to a more susceptible organism.

The structures appear in SMILES notation. Converted amounts (≈) assume the structure as drawn.

On to `COc1ccc(C(c2ccc(OCCN(C(C)C)C(C)C)cc2)c2cccs2)cc1` (configuration not stated), for which the MIC in assay [1] and in assay [2] was 6.25 µM (≈ 2.65 µg/mL) throughout.
